From patent publication US9469647B2, “Salt crystals” (INTRA-CELLULAR THERAPIES, INC., priority 2012, dated 2016)
Where a name gives a salt, the structure may show the parent alone. Read-outs that look alike come from different tables or passages of the source.

Test: Bridging study of monophosphate salt and free base in dog (plasma pharmacokinetics)
Type: in vivo
Conditions: po, 40 mg/kg; for half-life: read-out: E Half-life (converted)
Procedure: The mono-phosphate salt of (6aR,9aS)-5,6a,7,8,9,9a-hexahydro-5-methyl-3-(phenylamino)-2-((4-(6-fluoropyridin-2-yl)phenyl)methyl)-cyclopent[4,5]imidazo[1,2-a]pyrazolo[4,3-e]pyrimidin-4(2H)-one is administered to dogs at a dose of 40 mg/kg in gelatin capsules or via oral gavage in a vehicle formulation of HCl-Citrate, pH 3.5, 0.5% methylcellulose in water. […] The analysis of drug concentration in plasma samples collected is analyzed.
The pharmacokinetic (PK) parameters are determined from the plasma concentration versus time data by non-compartmental methods with uniform weighting (PK solutions 2.0™, Summit Research Services, Montrose, Colo.). The maximum observed concentration (Cmax) and the time of the maximum observed concentration (tmax) are obtained from the bioanalytical raw data. The area-under-the-plasma concentration-time curve from time zero to the time of the last measurable sample (AUC_) is calculated by the trapezoidal rule.

[1] = female, dog F-1101, oral gavage
[2] = female, dog F-1102, oral gavage
[3] = female, dog F-2102, oral capsule

CN1C(=O)c2c(nn(Cc3ccc(-c4cccc(F)n4)cc3)c2Nc2ccccc2)N2C1=N[C@@H]1CCC[C@@H]12 [Phosphate salt, (6aR,9aS)-5,6a,7,8,9,9a-hexahydro-5-methyl-3-(phenylamino)-2-((4-(6-fluoropyridin-2-yl)phenyl)methyl)-cyclopent[4,5]imidazo[1,2-a]pyrazolo[4,3-e]pyrimidin-4(2H)-one]
AUC (both sexes, Mean, oral capsule): 18700 ng·h/mL | Tmax (both sexes, Mean, oral capsule): 2 h | half-life (both sexes, Mean, oral capsule): 7.3 h | AUC (both sexes, Mean, oral gavage): 21300 ng·h/mL | Tmax (both sexes, Mean, oral gavage): 4 h | half-life (both sexes, Mean, oral gavage): 8.7 h | AUC [1]: 16200 ng·h/mL | Cmax [1]: 1080 ng/mL | Tmax [1]: 4 h | half-life [1]: 6.6 h | AUC [2]: 21300 ng·h/mL | Cmax [2]: 1360 ng/mL | Tmax [2]: 8 h | half-life [2]: 5.5 h | AUC [3]: 20500 ng·h/mL | Cmax [3]: 1470 ng/mL | Tmax [3]: 8 h | half-life [3]: 6.2 h | AUC (male, dog M-1001, oral gavage): 16900 ng·h/mL | Cmax (male, dog M-1001, oral gavage): 918 ng/mL | Tmax (male, dog M-1001, oral gavage): 8 h | half-life (male, dog M-1001, oral gavage): 7.8 h | AUC (male, dog M-1002, oral gavage): 31600 ng·h/mL | Cmax (male, dog M-1002, oral gavage): 1520 ng/mL | Tmax (male, dog M-1002, oral gavage): 4 h | half-life (male, dog M-1002, oral gavage): 12 h | AUC (male, dog M-2001, oral capsule): 13200 ng·h/mL | Cmax (male, dog M-2001, oral capsule): 2430 ng/mL | Tmax (male, dog M-2001, oral capsule): 2 h | half-life (male, dog M-2001, oral capsule): 4.6 h | AUC (male, dog M-2002, oral capsule): 21900 ng·h/mL | Cmax (male, dog M-2002, oral capsule): 1530 ng/mL | Tmax (male, dog M-2002, oral capsule): 2 h | half-life (male, dog M-2002, oral capsule): 7.8 h | Cmax (Mean, oral capsule): 1330 ng/mL | Cmax (Mean, oral gavage): 1160 ng/mL
